Data from patent US10052320B2, “Substituted quinoxalines as FGFR kinase inhibitors” (ASTEX THERAPEUTICS LIMITED, priority 2011, dated 2018).

What was measured:
[1] = system: Ba/F3-FGFR1-transfected cells in the presence of 10 ng/ml murine IL3; test: Ba/F3-FGFR1 (plus IL3) cellular proliferation counterscreen, Alamar Blue; type: cell-based; conditions: plus IL3, 384 well; for IC50: Mus musculus, read-out: BAF3-FGFR 1 (PLUS IL3) 384 well pIC50 (converted)
Procedure, shortened: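 Ba/F3 cells transfected with FGFR1 were incubated with compound in RPMI-1640/10% FBS for 24 h at 37 °C, 5% CO2. Alamar Blue (resazurin) was then added for 4 h and fluorescence was read at ex 540/em 590 nm. The counterscreen used the same conditions plus 10 ng/ml murine IL3.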

[2] = system: Ba/F3-FGFR3-transfected cells in the presence of 10 ng/ml murine IL3; test: Ba/F3-FGFR3 (plus IL3) cellular proliferation counterscreen, Alamar Blue; type: cell-based; conditions: plus 10 ng/ml murine IL3, 384 well; for IC50: Mus musculus, read-out: BAF3-FGFR 3 (PLUS IL3) 384 well pIC50 (converted)
Procedure, shortened: (§1)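 Ba/F3-FGFR3 cells in phenol red-free RPMI-1640/10% FBS exposed to compound 24 h at 37° C., then Alamar Blue (resazurin) 4 h; fluorescence ex 540/em 590 nm. Run at 20000 cells/well (384-well) or 10000 cells/well (96-well); counterscreen identical but with 10 ng/ml murine IL3.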

[3] = target: Ba/F3-FGFR3-transfected cells (Homo sapiens, UniProt P22607); test: Ba/F3-FGFR3 (minus IL3) cellular proliferation assay, Alamar Blue; type: cell-based; conditions: minus IL3, 384 well
Ba/F3-FGFR3-transfected cells, sequence (P22607 whole entry, change not shown): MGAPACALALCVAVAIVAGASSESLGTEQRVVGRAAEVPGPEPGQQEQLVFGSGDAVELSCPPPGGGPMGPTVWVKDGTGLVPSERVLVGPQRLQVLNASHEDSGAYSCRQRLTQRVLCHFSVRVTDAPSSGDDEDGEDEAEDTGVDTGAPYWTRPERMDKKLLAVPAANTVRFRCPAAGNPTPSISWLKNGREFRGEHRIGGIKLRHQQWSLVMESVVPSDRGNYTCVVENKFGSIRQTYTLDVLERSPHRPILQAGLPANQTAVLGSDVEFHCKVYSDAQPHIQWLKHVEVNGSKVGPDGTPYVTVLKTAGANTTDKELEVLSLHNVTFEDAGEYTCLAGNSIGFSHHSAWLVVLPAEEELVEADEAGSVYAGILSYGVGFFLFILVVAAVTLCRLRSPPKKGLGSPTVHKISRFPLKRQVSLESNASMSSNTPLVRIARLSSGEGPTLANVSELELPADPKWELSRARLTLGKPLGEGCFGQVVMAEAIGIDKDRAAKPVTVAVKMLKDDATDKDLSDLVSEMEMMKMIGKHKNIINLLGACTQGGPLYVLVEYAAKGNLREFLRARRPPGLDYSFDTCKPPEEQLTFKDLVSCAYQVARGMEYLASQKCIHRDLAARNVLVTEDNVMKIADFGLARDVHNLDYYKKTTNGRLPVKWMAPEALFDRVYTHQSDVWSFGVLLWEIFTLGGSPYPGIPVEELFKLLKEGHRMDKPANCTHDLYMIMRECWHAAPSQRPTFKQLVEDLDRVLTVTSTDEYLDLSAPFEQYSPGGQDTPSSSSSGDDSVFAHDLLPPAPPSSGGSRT
Procedure, shortened: as §1

[4] = target: Ba/F3-FGFR4-transfected cells (Homo sapiens, UniProt P22455); test: Ba/F3-FGFR4 cellular proliferation assay, Alamar Blue; type: cell-based
Ba/F3-FGFR4-transfected cells, sequence (P22455 whole entry, change not shown): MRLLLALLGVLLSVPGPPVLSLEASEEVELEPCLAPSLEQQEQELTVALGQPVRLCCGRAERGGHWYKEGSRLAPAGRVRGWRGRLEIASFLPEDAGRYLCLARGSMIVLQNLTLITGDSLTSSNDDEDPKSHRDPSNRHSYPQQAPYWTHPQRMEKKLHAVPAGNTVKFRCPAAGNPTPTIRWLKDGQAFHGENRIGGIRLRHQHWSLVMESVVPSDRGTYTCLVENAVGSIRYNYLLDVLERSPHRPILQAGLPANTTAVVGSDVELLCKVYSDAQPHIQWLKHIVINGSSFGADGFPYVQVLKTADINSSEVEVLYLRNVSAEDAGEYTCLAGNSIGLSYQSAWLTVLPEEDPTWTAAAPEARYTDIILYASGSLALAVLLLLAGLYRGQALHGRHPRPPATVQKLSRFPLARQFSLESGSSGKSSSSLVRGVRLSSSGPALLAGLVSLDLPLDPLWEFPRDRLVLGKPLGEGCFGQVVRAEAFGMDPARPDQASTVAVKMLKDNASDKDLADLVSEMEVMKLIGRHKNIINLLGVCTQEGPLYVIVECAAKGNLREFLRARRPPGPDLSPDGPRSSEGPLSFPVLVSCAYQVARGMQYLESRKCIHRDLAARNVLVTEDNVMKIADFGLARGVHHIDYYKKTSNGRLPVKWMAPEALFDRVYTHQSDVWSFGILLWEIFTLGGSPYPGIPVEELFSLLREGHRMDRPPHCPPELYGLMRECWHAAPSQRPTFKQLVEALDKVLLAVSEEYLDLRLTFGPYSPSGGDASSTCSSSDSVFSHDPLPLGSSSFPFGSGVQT
Procedure, shortened: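 Ba/F3 cells transfected with FGFR4, 20000 cells/well in phenol red-free RPMI-1640 with 10% FBS, were exposed to compound for 24 h at 37° C, 5% CO2. Alamar Blue (resazurin) was then added for 4 h, and fluorescence was read at ex 540/em 590 nm.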

FGFR2 (h) = FGFR2 (h) (Homo sapiens, UniProt P21802); test: FGFR2 (enzymatic assay), TR-FRET; type: biochemical; conditions: read-out: FGFR 2 pIC50 (converted)
FGFR2 (h), sequence (P21802 22-821): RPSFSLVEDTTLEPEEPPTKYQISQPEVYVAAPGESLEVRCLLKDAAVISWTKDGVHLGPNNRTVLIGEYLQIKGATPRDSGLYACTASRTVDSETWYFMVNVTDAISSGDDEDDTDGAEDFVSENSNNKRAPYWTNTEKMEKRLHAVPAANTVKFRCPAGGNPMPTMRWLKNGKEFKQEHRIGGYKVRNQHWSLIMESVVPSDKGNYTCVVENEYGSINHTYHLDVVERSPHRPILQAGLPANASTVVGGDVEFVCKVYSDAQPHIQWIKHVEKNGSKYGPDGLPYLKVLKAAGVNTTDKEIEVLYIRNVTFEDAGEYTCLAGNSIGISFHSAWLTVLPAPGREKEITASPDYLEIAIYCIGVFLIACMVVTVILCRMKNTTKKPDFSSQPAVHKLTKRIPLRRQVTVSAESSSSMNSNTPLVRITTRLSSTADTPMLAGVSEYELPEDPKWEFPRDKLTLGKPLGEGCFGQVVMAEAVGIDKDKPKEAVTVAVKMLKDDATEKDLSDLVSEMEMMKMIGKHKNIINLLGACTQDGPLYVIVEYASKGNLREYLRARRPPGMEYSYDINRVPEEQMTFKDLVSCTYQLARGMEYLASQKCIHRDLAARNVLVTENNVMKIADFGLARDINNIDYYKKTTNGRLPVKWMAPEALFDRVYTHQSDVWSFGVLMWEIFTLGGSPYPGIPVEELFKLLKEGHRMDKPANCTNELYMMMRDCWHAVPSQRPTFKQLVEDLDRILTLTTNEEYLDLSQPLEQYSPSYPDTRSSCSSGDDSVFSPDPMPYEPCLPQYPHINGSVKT
Description: In a final reaction volume of 30 μL, FGFR2 (h) (150 ng/ml) was incubated with 50 mM HEPES pH 7.5, 6 mM MnCl2, 1 mM DTT, 0.1 mM Na3VO4, 0.01% Triton-X-100, 500 nM Btn-Flt3 and 0.4 μM ATP in the presence of compound (1% DMSO final). […] Time-Resolved Fluorescence Resonance Energy Transfer (TR-FRET) signal (ex340 nm. Em 620 nm, em 655 nm) was measured afterwards and results are expressed in (Relative Fluorescence Units).

SMILES | BAF3-FGFR 3 (MIN IL3) 384 well pIC50 [3] | BAF3-FGFR4 pIC50 [4] | IC50 (FGFR2 (h)) [nM] | IC50 [1] [nM] | BAF3-FGFR 3 (PLUS IL3) 384 well pIC50 [2] | BAF3-FGFR 1 (PLUS IL3) 384 well pIC50 [1] | IC50 [2] [nM]
COc1cc(OC)cc(N(CC(OC(C)=O)C(F)(F)F)c2ccc3ncc(-c4cccnc4)nc3c2)c1 (single isomer, unassigned) [Compound 45] | – | – | – | > 10000 | – | – | –
COc1cc(OC)cc(N(CC(O)C(F)(F)F)c2ccc3ncc(-c4cccnc4)nc3c2)c1 (single isomer, unassigned) [Compound 53] | – | – | – | > 10000 | – | – | –
COc1cc(OC)cc(N(CC(O)C(F)(F)F)c2ccc3ncc(-c4cccnc4)nc3c2)c1 (single isomer, unassigned) [Compound 54] | – | – | – | – | <5 | <5 | –
COc1cc(OC)cc(N(CC(OC(C)=O)C(F)(F)F)c2ccc3ncc(-c4cccnc4)nc3c2)c1 (single isomer, unassigned) [Compound 75] | – | – | – | – | <5 | <5 | –
COCCCN(c1cc(OC)cc(OC)c1)c1ccc2ncc(-c3ccn(C)c3)nc2c1 [Compound 3] | 6.62 | 6.4 | 19.5 | > 10000 | – | – | > 10000
COc1cc(OC)cc(N(CCNC(C)C)c2ccc3ncc(-c4ccn(C)c4)nc3c2)c1 [Compound 8] | ~7.69 | 7.2 | 2.63 | > 10000 | – | – | –
CNC(=O)c1cc(-c2cnc3ccc(N(CCNC(C)C)c4cc(OC)cc(OC)c4)cc3n2)ccn1 [Compound 14] | 7.03 | 6.8 | 5.62 | ~7080 | – | – | –
CNC(=O)c1cc(-c2cnc3ccc(N(CCN4CCCC4=O)c4cc(OC)cc(OC)c4)cc3n2)ccn1 [Compound 25] | 5.13 | <5 | 251 | > 10000 | – | – | –
CNC(=O)OCCN(c1cc(OC)cc(OC)c1)c1ccc2ncc(-c3ccc(NC(=O)OC(C)(C)C)nc3)nc2c1 [Compound 80] | 5.09 | <5 | 912 | > 10000 | – | – | –
COc1cc(OC)cc(N(CC2CC2)c2ccc3ncc(-c4ocnc4C)nc3c2)c1 [Compound 104] | <5 | <5 | ~417 | > 10000 | – | – | > 10000
COc1cc(OC)cc(N(CC2CC2)c2ccc3ncc(-n4cnc(CO)c4)nc3c2)c1 [Compound 105] | 5.53 | 5.53 | 40.7 | – | – | – | –
CNC(=O)c1cc(-c2cnc3ccc(N(CCN4CCCC4CO)c4cc(OC)cc(OC)c4)cc3n2)ccn1 (stereo not drawn) [Compound 109] | ~6.77 | 6.2 | 6.31 | – | – | – | –
CNC(=O)c1cc(-c2cnc3ccc(N(CCNCC(F)(F)F)c4cc(OC)cc(OC)c4)cc3n2)ccn1 [Compound 113] | ~5.63 | 5.5 | 45.7 | – | – | – | –
COc1cc(OC)cc(N(CCNC(C)C)c2ccc3ncc(-c4ccccc4)nc3c2)c1 [Compound 121] | 6.42 | 6.4 | 3.72 | – | – | – | –
CNC(=O)c1cc(-c2cnc3ccc(N(CCCNCC(F)(F)F)c4cc(OC)cc(OC)c4)cc3n2)ccn1 [Compound 122] | 5.49 | ~5.1 | 46.8 | > 10000 | – | – | –

More lines, main results first:

BAF3-FGFR 3 (MIN IL3) 384 well pIC50 [3] | BAF3-FGFR4 pIC50 [4] | IC50 (FGFR2 (h)) [nM] | SMILES | IC50 [1] [nM] | BAF3-FGFR 3 (PLUS IL3) 384 well pIC50 [2] | BAF3-FGFR 1 (PLUS IL3) 384 well pIC50 [1] | IC50 [2] [nM]
~6.27 | 5.6 | 12 | COCCN(c1cc(OC)cc(OC)c1)c1ccc2ncc(-c3ccn(C)c3)nc2c1 [Compound 6] | > 10000 | – | – | > 10000
6.59 | 5.8 | 17 | COc1cc(OC)cc(N(CCO)c2ccc3ncc(-c4cccnc4)nc3c2)c1 [Compound 9] | > 10000 | – | – | > 10000
7.53 | 6.6 | 5.89 | COc1cc(OC)cc(N(CCNC(C)C)c2ccc3ncc(-c4cccnc4)nc3c2)c1 [Compound 10] | > 10000 | – | – | –
6.65 | 5.9 | 14.1 | COc1cc(OC)cc(N(CCO)c2ccc3ncc(-c4ccncc4)nc3c2)c1 [Compound 11] | > 10000 | – | – | > 10000
~7.03 | 6.8 | 2.45 | COc1cc(OC)cc(N(CCNC(C)C)c2ccc3ncc(-c4ccncc4)nc3c2)c1 [Compound 12] | > 10000 | – | – | > 10000
~7.09 | ~7.11 | 2.11 | COc1cc(OC)cc(N(CCNC(C)C)c2ccc3ncc(-c4ccc(N)nc4)nc3c2)c1 [Compound 17] | ~7760 | – | – | –
5.51 | 5.2 | 22.9 | COc1cc(OC)cc(N(CCCO)c2ccc3ncc(-c4ccnc(C(=O)NCCCN)c4)nc3c2)c1 [Compound 33] | > 10000 | – | – | –
6.87 | 6.5 | 4.07 | COc1cc(OC)cc(N(CCCO)c2ccc3ncc(-c4ccc(N5CCNCC5)nc4)nc3c2)c1 [Compound 48] | ~5250 | – | – | 5500
~5.77 | 5.7 | 8.91 | COc1cc(OC)cc(N(Cc2cccc(CN)n2)c2ccc3ncc(-c4ccc(N)nc4)nc3c2)c1 [Compound 51] | > 10000 | – | – | ~8130
~7.05 | 6.3 | 4.07 | COc1cc(OC)cc(N(CCCO)c2ccc3ncc(-c4ccnc(N)c4)nc3c2)c1 [Compound 66] | > 10000 | – | – | –
6.69 | 6.1 | 11.5 | COc1cc(OC)cc(N(CC(O)CO)c2ccc3ncc(-c4ccc(N)nc4)nc3c2)c1 (stereo not drawn) [Compound 74] | > 10000 | – | – | > 10000
5.91 | 5.9 | 5.5 | CNCCN(c1cc(OC)cc(OC)c1)c1ccc2ncc(-c3ccc(NC(=O)OC(C)(C)C)nc3)nc2c1 [Compound 81] | – | – | – | –
~6.54 | 6.3 | 5.82 | COc1cc(OC)cc(N(CCO)c2ccc3ncc(-c4ccc(N)nc4)nc3c2)c1 [Compound 106] | – | – | – | –
6.81 | 6.2 | 17.4 | COc1cc(OC)cc(N(CC2CO2)c2ccc3ncc(-c4ccc(N)nc4)nc3c2)c1 (stereo not drawn) [Compound 110] | > 10000 | – | – | –
~6.17 | 5.9 | 23.4 | COc1cc(OC)cc(N(CCO)c2ccc3ncc(-c4ccc(OC)nc4)nc3c2)c1 [Compound 111] | > 10000 | – | – | > 10000
~6.39 | 5.8 | 20.9 | COc1cc(OC)cc(N(CCCO)c2ccc3ncc(-c4cccnc4)nc3c2)c1 [Compound 112] | > 10000 | – | – | > 10000
6.29 | 5.7 | 13.5 | COc1cc(OC)cc(N(CCCO)c2ccc3ncc(-c4ccc(C)nc4)nc3c2)c1 [Compound 115] | – | – | – | –
6.59 | 6.4 | 10.7 | CNc1ccc(-c2cnc3ccc(N(CCCO)c4cc(OC)cc(OC)c4)cc3n2)cn1 [Compound 116] | > 10000 | – | – | > 10000
~6.09 | 6.0 | 15.1 | COc1cc(OC)cc(N(CCO)c2ccc3ncc(-c4ccccc4)nc3c2)c1 [Compound 120] | > 10000 | – | – | –
~6.64 | 6.1 | – | COc1cc(OC)cc(N(CCCO)c2ccc3ncc(-c4ccc(N5CCOCC5)nc4)nc3c2)c1 [Compound 124] | > 10000 | – | – | > 10000
~6.04 | <5 | 309 | COc1cc(OC)cc(N(CCCO)c2ccc3ncc(-c4ccc(N(C)C(=O)OC(C)(C)C)nc4)nc3c2)c1 [Compound 125] | – | – | – | –
5.51 | 5.1 | 33.1 | COc1cc(OC)cc(N(CCCO)c2ccc3ncc(-c4ccnc(C(=O)NCCCCN)c4)nc3c2)c1 [Compound 126] | – | – | – | –
